The record followed here is patent publication US20080221060A1, “Therapeutic Compounds” (priority 2004, published 2008).

Where two headings read alike, the source gives them in different places.

Test [1] concerns the target adenosine receptors (rat striatal membranes, [3H]-CGS21680) (Rattus norvegicus, UniProt P30543). The experiment in a line: Ki from displacement of [3H]-CGS21680 in rat striatal membranes at pH 5.5 and pH 7.4. The test is classed as binding. Also on record: from tissue; host or cells: rat striatum (membranes). Particulars: 2 nM [3H]-CGS21680, 90 minutes at 22° C. Background: Loss of bound radioactivity is the signal in a displacement assay; it reports binding, not function.

For test [2], the system named is chronic constriction injury model of neuropathic pain. The experiment in a line: static allodynia, chronic constriction injury of the rat sciatic nerve. Particulars: rat CCI, p.o., dose response. The test is classed as in vivo. An excerpt:
The total dose administered is shown on the horizontal axis, and the paw withdrawal threshold (PWT) on the vertical axis.

[3] abbreviates: pH 5.5, read-out: (Ki) nM (pH 5.5).
The mark [4] stands for this setting: pH 7.4, read-out: (Ki) nM (pH 7.4).

Sequence of adenosine receptors (rat striatal membranes, [3H]-CGS21680) (P30543 whole entry): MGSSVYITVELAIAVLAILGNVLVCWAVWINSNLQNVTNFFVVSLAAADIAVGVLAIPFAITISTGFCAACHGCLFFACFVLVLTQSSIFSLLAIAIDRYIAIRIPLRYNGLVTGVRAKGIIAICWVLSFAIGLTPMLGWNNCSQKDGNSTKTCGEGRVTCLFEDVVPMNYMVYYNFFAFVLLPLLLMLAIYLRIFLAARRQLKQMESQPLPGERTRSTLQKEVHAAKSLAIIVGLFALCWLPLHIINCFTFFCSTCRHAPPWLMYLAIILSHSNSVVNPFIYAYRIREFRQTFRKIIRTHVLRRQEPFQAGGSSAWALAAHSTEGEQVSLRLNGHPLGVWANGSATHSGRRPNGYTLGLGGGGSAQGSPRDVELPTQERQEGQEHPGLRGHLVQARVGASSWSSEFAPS

As for `Cc1cc(Oc2nc(N)c3ncn([C@@H]4O[C@H](CO)[C@@H](O)[C@H]4O)c3n2)ccc1F` [Compound 13], the values for the Ki in test [1] (setting [3]) and in test [1] (setting [4]) were 43 nM and 3100 nM, respectively.

For `CN(C)c1ncnc2c1ncn2[C@@H]1O[C@H](CO)[C@@H](O)[C@H]1O` [Compound 41], the Ki in test [1] ((Ki) nM (pH 5.5), pH 5.5) stood at 42 nM; in test [1] ((Ki) nM (pH 7.4), pH 7.4) it was 450000 nM.

As for `CC(C)CCNc1ncnc2c1ncn2[C@@H]1O[C@H](C(=O)NC(C)C)[C@@H](O)[C@H]1O` [Compound 52], the Ki in test [1] (setting [3]) worked out at 39 nM; in test [1] (setting [4]), 1300 nM.

Consider `COc1nc(NCc2ccccc2)c2ncn([C@@H]3O[C@H](CO)[C@@H](O)[C@H]3O)c2n1` [Compound 58], for which the figures for the Ki in test [1] (setting [3]) and in test [1] (setting [4]) were 4.5 nM and 6100 nM, respectively. The like results for `Nc1nc(OCC(F)F)nc2c1ncn2[C@@H]1O[C@H](CO)[C@@H](O)[C@H]1O` [Compound 2] were, in that order, 17 nM and 780 nM. The like results for `CN(Cc1cccc(Br)c1)c1ncnc2c1ncn2[C@@H]1O[C@H](CO)[C@@H](O)[C@H]1O` [Compound 44] were, in that order, 29 nM and 7500 nM. Taken in the same sequence, the figures for `NC(=O)c1nc(N)c2ncn([C@@H]3O[C@H](CO)[C@@H](O)[C@H]3O)c2n1` [Compound 39] were 23 nM and 610 nM. On to `CN(C)c1nc(N)c2ncn([C@@H]3O[C@H](CO)[C@@H](O)[C@H]3O)c2n1` [Compound 21], for which, in test [1] (setting [4]), the Ki was determined as 13300 nM. On to `Nc1nc(Nc2ccccc2)nc2c1ncn2[C@@H]1O[C@H](CO)[C@@H](O)[C@H]1O` [Compound 26, 2-phenylamino adenosine], for which the Ki in test [1] (setting [3]) is 5 nM; in test [1] (setting [4]), 160 nM. Taken in the same sequence, the figures for `Nc1nc(Oc2cc(F)cc(F)c2F)nc2c1ncn2[C@@H]1O[C@H](CO)[C@@H](O)[C@H]1O` [Compound 12] were 46 nM and 5900 nM. Take `CNc1nc(N)c2ncn([C@@H]3O[C@H](CO)[C@@H](O)[C@H]3O)c2n1` [Compound 19]: in test [1] (setting [4]), the Ki was found to be 1360 nM. Take `OC[C@H]1O[C@@H](n2cnc3c(OCC4CCCC4)ncnc32)[C@H](O)[C@@H]1O` [Compound 48]: the figures for the Ki in test [1] (setting [3]) and in test [1] (setting [4]) were 140 nM and 21000 nM, respectively. As for `CC(C)=CCNc1ncnc2c1ncn2[C@@H]1O[C@H](CO)[C@@H](O)[C@H]1O` [Compound 42], the Ki in test [1] ((Ki) nM (pH 5.5), pH 5.5) is 91.5 nM; in test [1] ((Ki) nM (pH 7.4), pH 7.4), 8600 nM.

With `Nc1nc(Nc2ccc(F)cc2)nc2c1ncn2[C@@H]1O[C@H](CO)[C@@H](O)[C@H]1O` [Compound 28], the Ki in test [1] (setting [3]) was found to be 10 nM; in test [1] (setting [4]), 200 nM. With `Nc1nc(Oc2cccc(Br)c2)nc2c1ncn2[C@@H]1O[C@H](CO)[C@@H](O)[C@H]1O` [Compound 15], the Ki in test [1] (setting [3]) stood at 35 nM; in test [1] (setting [4]) it was 590 nM.

Consider `NC(=O)[C@H]1O[C@@H](n2cnc3c(N)ncnc32)[C@H](O)[C@@H]1O` [Compound 50], for which the Ki in test [1] (setting [3]) stood at 9 nM; in test [1] (setting [4]) it was 270 nM.

Take `Cc1ccccc1Oc1nc(N)c2ncn([C@@H]3O[C@H](CO)[C@@H](O)[C@H]3O)c2n1` [Compound 14]: the Ki in test [1] (setting [4]) amounted to 22000 nM. `Nc1nc(OCC2CC2)nc2c1ncn2[C@@H]1O[C@H](CO)[C@@H](O)[C@H]1O` [Compound 3]: the Ki in test [1] (setting [3]) came to 39 nM; in test [1] (setting [4]) it was 670 nM. Taken in the same sequence, the figures for `CC[C@@H](C)Nc1nc(N)c2ncn(C3OC(CO)C(O)C3O)c2n1` (some centres unmarked) [Compound 22] were 33 nM and 510 nM. The like results for `Nc1nc(NC2CC3CCC2C3)nc2c1ncn2[C@@H]1O[C@H](CO)[C@@H](O)[C@H]1O` (some centres unmarked) [Compound 25] were, in that order, 5.5 nM and 120 nM.

With `CN(Cc1ccccc1)c1ncnc2c1ncn2[C@@H]1O[C@H](CO)[C@@H](O)[C@H]1O` [Compound 43], the values for the Ki in test [1] (setting [3]) and in test [1] (setting [4]) were 7 nM and 18500 nM, respectively. Consider `Nc1nc(Oc2ccc(F)cc2F)nc2c1ncn2[C@@H]1O[C@H](CO)[C@@H](O)[C@H]1O` [Compound 10], for which the Ki in test [1] (setting [3]) worked out at 16 nM; in test [1] (setting [4]), 6400 nM.

As to `Nc1nc(Oc2ccc(F)c(F)c2)nc2c1ncn2[C@@H]1O[C@H](CO)[C@@H](O)[C@H]1O` [Compound 11], the Ki was 63 nM in test [1] (setting [3]) and 3300 nM in test [1] (setting [4]). Consider `Nc1nc(OC2CC(F)(F)C2(F)F)nc2c1ncn2[C@@H]1O[C@H](CO)[C@@H](O)[C@H]1O` (some centres unmarked) [Compound 35], for which the Ki was 11 nM in test [1] (setting [3]) and 220 nM in test [1] (setting [4]). `NCC1(CC(=O)O)CCCCC1` [gabapentin, reference compound]: the “inhibition of static allodynia (paw withdrawal threshold)” value in test [2] is “inhibit static allodynia”. Consider `Nc1nc(OCCO)nc2c1ncn2[C@@H]1O[C@H](CO)[C@@H](O)[C@H]1O` [Compound 34, 2-(β-hydroxyethoxy)-adenosine], for which the values for the Ki in test [1] (setting [3]) and in test [1] (setting [4]) were 4 nM and 203 nM, respectively. Taken in the same sequence, the figures for `CCCCCCOc1nc(N)c2ncn([C@@H]3O[C@H](CO)[C@@H](O)[C@H]3O)c2n1` [Compound 5] were 3 nM and 1500 nM. The like results for `CN(C)c1nc(NC2CCCCC2)nc2c1ncn2[C@@H]1O[C@H](CO)[C@@H](O)[C@H]1O` [Compound 57] were, in that order, 2.6 nM and 18000 nM. Consider `N#Cc1nc(N)c2ncn([C@@H]3O[C@H](CO)[C@@H](O)[C@H]3O)c2n1` [Compound 38], for which the values for the Ki in test [1] (setting [3]) and in test [1] (setting [4]) were 25 nM and 175 nM, respectively. Taken in the same sequence, the figures for `CCS(=O)(=O)c1nc(N)c2ncn([C@@H]3O[C@H](CO)[C@@H](O)[C@H]3O)c2n1` [Compound 33] were 100 nM and 39000 nM. As for `CN(Cc1cccc(C(F)(F)F)c1)c1ncnc2c1ncn2[C@@H]1O[C@H](CO)[C@@H](O)[C@H]1O` [Compound 45], the Ki in test [1] (setting [3]) turned out to be 3.8 nM; in test [1] (setting [4]), 20000 nM. Taken in the same sequence, the figures for `CCCCCCNc1nc(N)c2nc(C)n([C@@H]3O[C@H](CO)[C@@H](O)[C@H]3O)c2n1` [Compound 61] were 130 nM and 4800 nM. For `COCCN(C)c1ncnc2c1ncn2[C@@H]1O[C@H](CO)[C@@H](O)[C@H]1O` [Compound 47], the values for the Ki in test [1] (setting [3]) and in test [1] (setting [4]) were 13 nM and 13000 nM, respectively. For the compound `CCCCCCNc1nc(N)c2ncn([C@@H]3O[C@H](CO)[C@@H](O)[C@H]3O)c2n1` [Compound 24], the Ki in test [1] (setting [3]) worked out at 0.7 nM; in test [1] (setting [4]), 290 nM. The like results for `CC(C)c1cccc(Oc2nc(N)c3ncn([C@@H]4O[C@H](CO)[C@@H](O)[C@H]4O)c3n2)c1` [Compound 18] were, in that order, 16 nM and 560 nM. Taken in the same sequence, the figures for `COc1ccc(Nc2nc(N)c3ncn([C@@H]4O[C@H](CO)[C@@H](O)[C@H]4O)c3n2)cc1` [Compound 27, 2-(4-methoxyphenylamino) adenosine] were 3 nM and 55 nM.

What is called Ki is the equilibrium dissociation constant of an inhibitor or competing ligand from its target.
